Test results taken from the supplement of paper PMC10307832.

What was measured:
Assay in all cases: relative viability (nuclei count vs DMSO), 5 days (fraction); higher = more cells survive
A549 = system: A549
In short: (§1)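 Relative viability was taken as the ratio of nuclei in treated wells to nuclei in vehicle wells. Lung cancer cell lines in 1536-well plates received compounds by pin tool one day after seeding, either one drug alone or a fixed anchor-drug dose plus five library-drug doses (not always all listed) in √10 steps. Nuclei were counted on 4× images after 5 days of treatment, and values are medians of duplicate plates.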

CAL-12T = system: CAL-12T
In short: as §1

Calu-6 = system: Calu-6
In short: as §1

EBC-1 = system: EBC-1
In short: as §1

IA-LM = system: IA-LM
In short: as §1

LK-2 = system: LK-2
In short: as §1

NCI-H1299 = system: NCI-H1299
In short: as §1

NCI-H1703 = system: NCI-H1703
In short: as §1

NCI-H1650 = system: NCI-H1650
In short: as §1

Question: What does the source list for Oc1nc(-c2ccc(C(F)(F)F)cc2)nc2c1CSCC2 [XAV939] + Cc1nc(NC(=O)N2CCC[C@H]2C(N)=O)sc1-c1ccnc(C(C)(C)C(F)(F)F)c1 [Alpelisib] (partner 2 µM)?
Answer: relative viability (A549; first compound 0.08 µM): 0.877; relative viability (A549; first compound 0.253 µM): 0.371; relative viability (A549; first compound 0.8 µM): 0.484; relative viability (A549; first compound 2.53 µM): 0.524; relative viability (CAL-12T; first compound 0.08 µM): 1.42; relative viability (CAL-12T; first compound 0.253 µM): 0.932; relative viability (CAL-12T; first compound 0.8 µM): 1.2; relative viability (CAL-12T; first compound 2.53 µM): 0.73; relative viability (Calu-6; first compound 0.08 µM): 1.08; relative viability (Calu-6; first compound 0.253 µM): 0.887; relative viability (Calu-6; first compound 0.8 µM): 0.919; relative viability (Calu-6; first compound 2.53 µM): 0.948; relative viability (EBC-1; first compound 0.08 µM): 0.874; relative viability (EBC-1; first compound 0.253 µM): 0.71; relative viability (EBC-1; first compound 0.8 µM): 0.716; relative viability (EBC-1; first compound 2.53 µM): 0.726; relative viability (IA-LM; first compound 0.08 µM): 0.77; relative viability (IA-LM; first compound 0.253 µM): 0.693; relative viability (IA-LM; first compound 0.8 µM): 0.705; relative viability (IA-LM; first compound 2.53 µM): 0.557; relative viability (LK-2; first compound 0.08 µM): 1.03; relative viability (LK-2; first compound 0.253 µM): 1.02; relative viability (LK-2; first compound 0.8 µM): 1.1; relative viability (LK-2; first compound 2.53 µM): 0.923; relative viability (NCI-H1299; first compound 0.08 µM): 1.08; relative viability (NCI-H1299; first compound 0.253 µM): 1.04; relative viability (NCI-H1299; first compound 0.8 µM): 1.09; relative viability (NCI-H1299; first compound 2.53 µM): 1.11; relative viability (NCI-H1703; first compound 0.08 µM): 0.397; relative viability (NCI-H1703; first compound 0.253 µM): 0.301; relative viability (NCI-H1703; first compound 0.8 µM): 0.307; relative viability (NCI-H1703; first compound 2.53 µM): 0.324

Question: Which results are given for C=C1C(=O)O[C@@H](CCCCCCCC)[C@@H]1C(=O)O [C-75] + C[C@]1(O)C[C@@H](c2nc(-c3ccc4ccc(-c5ccccc5)nc4c3)c3c(N)nccn32)C1 [Linsitinib] (partner 1 µM)?
Answer: relative viability (A549; first compound 0.08 µM): 0.526; relative viability (A549; first compound 0.253 µM): 0.753; relative viability (A549; first compound 0.8 µM): 0.549; relative viability (A549; first compound 2.53 µM): 0.37; relative viability (A549; first compound 8 µM): 0.628; relative viability (CAL-12T; first compound 0.08 µM): 0.814; relative viability (CAL-12T; first compound 0.253 µM): 1.02; relative viability (CAL-12T; first compound 0.8 µM): 0.751; relative viability (CAL-12T; first compound 2.53 µM): 0.701; relative viability (CAL-12T; first compound 8 µM): 0.792; relative viability (Calu-6; first compound 0.08 µM): 0.902; relative viability (Calu-6; first compound 0.253 µM): 0.941; relative viability (Calu-6; first compound 0.8 µM): 0.905; relative viability (Calu-6; first compound 2.53 µM): 0.916; relative viability (Calu-6; first compound 8 µM): 0.724; relative viability (EBC-1; first compound 0.08 µM): 0.878; relative viability (EBC-1; first compound 0.253 µM): 1.05; relative viability (EBC-1; first compound 0.8 µM): 0.82; relative viability (EBC-1; first compound 2.53 µM): 0.821; relative viability (EBC-1; first compound 8 µM): 0.734; relative viability (IA-LM; first compound 0.08 µM): 0.682; relative viability (IA-LM; first compound 0.253 µM): 0.644; relative viability (IA-LM; first compound 0.8 µM): 0.53; relative viability (IA-LM; first compound 2.53 µM): 0.556; relative viability (IA-LM; first compound 8 µM): 0.53; relative viability (LK-2; first compound 0.08 µM): 0.416; relative viability (LK-2; first compound 0.253 µM): 0.785; relative viability (LK-2; first compound 0.8 µM): 0.607; relative viability (LK-2; first compound 2.53 µM): 0.514; relative viability (LK-2; first compound 8 µM): 0.369; relative viability (NCI-H1299; first compound 0.08 µM): 1.01; relative viability (NCI-H1299; first compound 0.253 µM): 0.908; relative viability (NCI-H1299; first compound 0.8 µM): 1.05; relative viability (NCI-H1299; first compound 2.53 µM): 0.814; relative viability (NCI-H1299; first compound 8 µM): 1.06; relative viability (NCI-H1703; first compound 0.08 µM): 0.752; relative viability (NCI-H1703; first compound 0.253 µM): 0.591; relative viability (NCI-H1703; first compound 0.8 µM): 0.672; relative viability (NCI-H1703; first compound 2.53 µM): 0.457; relative viability (NCI-H1703; first compound 8 µM): 0.632

Question: Which results are given for CC1(C)CCC(c2ccc(Cl)cc2)=C(CN2CCN(c3ccc(C(=O)NS(=O)(=O)c4ccc(N[C@H](CCN5CCOCC5)CSc5ccccc5)c(S(=O)(=O)C(F)(F)F)c4)cc3)CC2)C1 [Navitoclax] + CC(C)C[C@H](NC(=O)[C@H](Cc1ccccc1)NC(=O)c1cnccn1)B(O)O [Bortezomib] (partner 0.002 µM)?
Answer: relative viability (CAL-12T; first compound 0.005 µM): 0.887; relative viability (CAL-12T; first compound 0.01581 µM): 0.711; relative viability (CAL-12T; first compound 0.05 µM): 0.989; relative viability (CAL-12T; first compound 0.1581 µM): 0.853; relative viability (CAL-12T; first compound 0.5 µM): 0.941; relative viability (Calu-6; first compound 0.005 µM): 0.999; relative viability (Calu-6; first compound 0.01581 µM): 1.16; relative viability (Calu-6; first compound 0.05 µM): 1.13; relative viability (Calu-6; first compound 0.1581 µM): 0.972; relative viability (Calu-6; first compound 0.5 µM): 0.877; relative viability (EBC-1; first compound 0.005 µM): 0.614; relative viability (EBC-1; first compound 0.01581 µM): 0.649; relative viability (EBC-1; first compound 0.05 µM): 0.575; relative viability (EBC-1; first compound 0.1581 µM): 0.616; relative viability (EBC-1; first compound 0.5 µM): 0.383; relative viability (IA-LM; first compound 0.005 µM): 0.926; relative viability (IA-LM; first compound 0.01581 µM): 0.818; relative viability (IA-LM; first compound 0.05 µM): 0.824; relative viability (IA-LM; first compound 0.1581 µM): 0.896; relative viability (IA-LM; first compound 0.5 µM): 0.747; relative viability (NCI-H1299; first compound 0.005 µM): 1.04; relative viability (NCI-H1299; first compound 0.01581 µM): 1.12; relative viability (NCI-H1299; first compound 0.05 µM): 1.01; relative viability (NCI-H1299; first compound 0.1581 µM): 1.05; relative viability (NCI-H1299; first compound 0.5 µM): 1.02; relative viability (NCI-H1650; first compound 0.005 µM): 0.183; relative viability (NCI-H1650; first compound 0.01581 µM): 0.213; relative viability (NCI-H1650; first compound 0.05 µM): 0.165; relative viability (NCI-H1650; first compound 0.1581 µM): 0.191; relative viability (NCI-H1650; first compound 0.5 µM): 0.163; relative viability (NCI-H1703; first compound 0.005 µM): 0.214; relative viability (NCI-H1703; first compound 0.01581 µM): 0.275; relative viability (NCI-H1703; first compound 0.05 µM): 0.313; relative viability (NCI-H1703; first compound 0.1581 µM): 0.65; relative viability (NCI-H1703; first compound 0.5 µM): 0.224
